The values that follow come from publication PMC4216207 (Journal of Medicinal Chemistry, 2014).

Molecules are shown by their SMILES.

What is called CC50 is the concentration that lowers cell viability or growth by half. Lower therefore signals harm at low concentration. A word on the EC50: it is the concentration giving half of the maximal effect.

Data set [1] concerns lentiviral vector harboring WT IN. The experiment in a line: microbe, parasite or virus in culture. It counts as cell-based, HIV-1. Particulars: for antiviral potency against WT vector with increasing FBS: 5%, 10% and 15% FBS, relative to values at 5% FBS, data not shown.
A short description of data set [2]: cellular cytotoxicity assay. It counts as cell-based. Particulars: human, HOS human osteosarcoma cells.
Data set [3] has as its system HIV-1 construct carrying IN mutation R263 K. As to the kind of experiment: single-round HIV-1 infectivity assay, R263 K IN mutant. It counts as cell-based. Particulars: Human immunodeficiency virus 1, read-out: EC50 R263 K IN mutant.
For data set [4], the system named is HIV-1 construct carrying IN mutation G118R. As to the kind of experiment: single-round HIV-1 infectivity assay, G118R IN mutant. Particulars: Human immunodeficiency virus 1, read-out: EC50 G118R IN mutant. It counts as cell-based.

Consider `CC(=O)OCCNc1c(C(=O)NCc2ccc(F)cc2F)c(=O)n(O)c2ncccc12` [5p, 2-((3-((2,4-Difluorobenzyl)carbamoyl)-1-hydroxy-2-oxo-1,2-dihydro-1,8-naphthyridin-4-yl)amino)ethyl Acetate], for which the “antiviral potency against WT vector with increasing FBS” value in data set [1] is given as “essentially unchanged”.
The same measure, in the same setting: then `COC(=O)CNc1c(C(=O)NCc2ccc(F)cc2F)c(=O)n(O)c2ncccc12` [5q, Methyl 2-((3-((2,4-Difluorobenzyl)carbamoyl)-1-hydroxy-2-oxo-1,2-dihydro-1,8-naphthyridin-4-yl)amino)acetate], with “essentially unchanged”.
Same read-out and setting: to `Nc1c(C(=O)NCc2ccc(F)cc2F)c(=O)n(O)c2ncccc12` [5v, 4-Amino-N-(2,4-difluorobenzyl)-1-hydroxy-2-oxo-1,2-dihydro-1,8-naphthyridine-3-carboxamide] belongs “essentially unchanged”.
Regarding `COC(=O)[C@H](Nc1c(C(=O)NCc2ccc(F)cc2F)c(=O)n(O)c2ncccc12)c1ccccc1` [(R)-5s, Methyl (R)-2-((3-((2,4-Difluorobenzyl)carbamoyl)-1-hydroxy-2-oxo-1,2-dihydro-1,8-naphthyridin-4-yl)amino)-2-phenylacetate], the CC50 in data set [2] is over 250000 nM.
Still for that read-out and setting: then `COC(=O)[C@@H](CO)Nc1c(C(=O)NCc2ccc(F)cc2F)c(=O)n(O)c2ncccc12` [(R)-5t, Methyl (R)-2-((3-((2,4-Difluorobenzyl)carbamoyl)-1-hydroxy-2-oxo-1,2-dihydro-1,8-naphthyridin-4-yl)amino)-3-hydroxypropanoate], with over 250000 nM.
Turning to `COC(=O)[C@H](C)Nc1c(C(=O)NCc2ccc(F)cc2F)c(=O)n(O)c2ncccc12` [(S)-5r, Methyl (S)-2-((3-((2,4-Difluorobenzyl)carbamoyl)-1-hydroxy-2-oxo-1,2-dihydro-1,8-naphthyridin-4-yl)amino)propanoate], in data set [2], the CC50 is over 250000 nM.
Take `Cc1nnc(C(=O)NC(C)(C)c2nc(C(=O)NCc3ccc(F)cc3)c(O)c(=O)n2C)o1` [compound 1, raltegravir]: the EC50 in data set [3] amounted to 9 ± 4 nM; in data set [4], 36 ± 5 nM; in data set [1] (Human immunodeficiency virus 1, read-out: EC50 (WT)) it was 4 ± 2 nM.
